Consider 26 molecules from patent EP4644375A1, “SUBSTITUTED HYDROQUINOLINES FOR THE TREATMENT OF GLIOBLASTOMA MULTIFORME” (Molius Saglik Teknolojileri Anonim Sirketi, priority 2024, dated 2025).

For assay [1], the system named is U138-MG human glioma cell. Description: Cell proliferation analysis (MTT). It counts as cell-based. Particulars: MTT; for inhibition at 10 µM / activity at 10 µM: Homo sapiens, 48 h. How it is done:
(§1) U87-MG and U138-MG human glioma cell, were incubated with 10% fetal bovine serum (FBS) (Gibco, 10500-064), 1% L-glutamine (Gibco, 25030-024), in a humidified incubator with 5% CO2 at 37 °C. The cells were contained in DMEM High Glucose (Gibco, 41966-029) supplemented with 1% penicillin-streptomycin (P/S) (Gibco 15140-122) solution. The cytotoxic effects of the target compounds on U87-MG and U138-MG cell lines were assessed using the MTT (Thiazolyl Blue Tetrazolium Bromide) method. 7×10^3 cells were seeded into a 96-well plate in 100 µl DMEM High Glucose 10% FBS and 1% P/S. 24 hours after cell incubation, each target compound was added at a dose of 10 µM and the drug treatment was carried out for two days. After the incubation period, 10 µL of MTT solution was added to each well (5 mg/ml in PBS). After 2 hours, MTT solutions were removed from the wells. Then, 100 µl DMSO was added, and mixed to dissolve the formazan crystals. Cell proliferation was analysed by measuring the absorbance of dissolved formazan at a wavelength of 570 nm.
(§2) IC50 values were determined using the same method as above wherein the cells were treated with the target compounds at different doses.

Assay [2] has as its system U87-MG human glioma cell. Description: Cell proliferation analysis (MTT). The class given is cell-based. Particulars: MTT; for inhibition at 10 µM / activity at 10 µM: Homo sapiens, U-87 MG, 48 h. The procedure:
as §1, §2

Regarding “2-oxo-1,2,3,4-tetrahydroquinolin-6-yl dimethylcarbamate [TR-G005]”, in assay [1] (10 µM, two days), the “Cell Proliferation (%)” value came to 77% and the “Inhibition (%)” value is 23%. Also, in assay [2] (10 µM, two days), the “Cell Proliferation (%)” value is 77% and the “Inhibition (%)” value was 23%.

“2-oxo-1,2,3,4-tetrahydroquinolin-6-yl diphenylcarbamate [TR-G020]”: in assay [1] (10 µM, two days), the “Cell Proliferation (%)” value was 80% and the “Inhibition (%)” value is recorded as 20%. In addition, in assay [2] (10 µM, two days), the “Cell Proliferation (%)” value is 72% and the “Inhibition (%)” value came out at 29%.

As for `O=C1CCc2cc(OCCCCc3nnnn3C3CCCCC3)ccc2N1` [Cilostazol, reference compound], the “Inhibition (%)” value came out at 12% in assay [1] (reference drugs) and 22% in assay [2] (reference drugs). Further, the figures for the “Proliferation (%)” value in assay [1] (reference drugs) and in assay [2] (reference drugs) were 88% and 78%, respectively.

With `O=C1CCc2cc(OCCOCc3ccccc3)ccc2N1` [TR-G001, 6-(2-(benzyloxy)ethoxy)-3,4-dihydroquinolin-2(1H)-one], the “Cell Proliferation (%)” value was 88% in assay [1] (10 µM, two days) and 78% in assay [2] (10 µM, two days). Further, the inhibition at 10 µM came to 12% in assay [1] (10 µM, two days) and 22% in assay [2] (10 µM, two days).

Take `CC(C)C/C=N/NC(=O)COc1ccc2c(c1)CCC(=O)N2` [TR-G003, (E)-N'-(3-methylbutylidene)-2-((2-oxo-1,2,3,4-tetrahydroquinolin-6-yl)oxy)acetohydrazide]: the activity at 10 µM in assay [1] (10 µM, two days) was found to be 84%; in assay [2] (10 µM, two days) it was 79%. Besides, the inhibition at 10 µM in assay [1] (10 µM, two days) came out at 16%; in assay [2] (10 µM, two days) it was 21%.

With `O=C1CCc2cc(OCC(=O)Oc3ccccc3)ccc2N1` [TR-G004, phenyl 2-((2-oxo-1,2,3,4-tetrahydroquinolin-6-yl)oxy)acetate], the activity at 10 µM in assay [1] (10 µM, two days) was determined as 88%; in assay [2] (10 µM, two days) it was 73%. Further, the inhibition at 10 µM was determined as 12% in assay [1] (10 µM, two days) and 27% in assay [2] (10 µM, two days).

For `O=C1CCc2cc(OC(=O)Cc3ccccc3)ccc2N1` [TR-G007, 2-oxo-1,2,3,4-tetrahydroquinolin-6-yl 2-phenylacetate], in assay [1] (10 µM, two days), the activity at 10 µM was 82% and the inhibition at 10 µM was 18%. Moreover, in assay [2] (10 µM, two days), the activity at 10 µM turned out to be 91% and the inhibition at 10 µM was determined as 9%.

On to `COc1ccc(C(=O)Oc2ccc3c(c2)CCC(=O)N3)cc1OC` [TR-G008, 2-oxo-1,2,3,4-tetrahydroquinolin-6-yl 3,4-dimethoxybenzoate], for which, in assay [1] (10 µM, two days), the activity at 10 µM is 65% and the inhibition at 10 µM is 35%. Also, in assay [2] (10 µM, two days), the activity at 10 µM amounted to 63% and the inhibition at 10 µM is 37%.

For `COc1ccc(C(=O)Oc2ccc3c(c2)CCC(=O)N3)c(OC)c1` [TR-G009, 2-oxo-1,2,3,4-tetrahydroquinolin-6-yl 2,4-dimethoxybenzoate], in assay [1] (10 µM, two days), the activity at 10 µM was determined as 87% and the inhibition at 10 µM was found to be 13%. In addition, in assay [2] (10 µM, two days), the activity at 10 µM turned out to be 72% and the inhibition at 10 µM was determined as 28%.

Turning to `O=C1CCc2cc(OCC3CC3)ccc2N1` [TR-G010, 6-(cyclopropylmethoxy)-3,4-dihydroquinolin-2(1H)-one], in assay [1] (10 µM, two days), the activity at 10 µM turned out to be 74% and the inhibition at 10 µM amounted to 26%. In assay [2] (10 µM, two days), the activity at 10 µM stood at 74% and the inhibition at 10 µM was 26%.

With `O=C1CCc2cc(OC(=O)c3cccc4ccccc34)ccc2N1` [TR-G011, 2-oxo-1,2,3,4-tetrahydroquinolin-6-yl 1-naphthoate], in assay [1] (10 µM, two days), the activity at 10 µM was 60% and the inhibition at 10 µM came out at 40%. For the same molecule, in assay [2] (10 µM, two days), the activity at 10 µM is 76% and the inhibition at 10 µM worked out at 24%.

In the case of `CCOC(=O)COc1ccc2c(c1)CCC(=O)N2` [TR-G012, ethyl 2-((2-oxo-1,2,3,4-tetrahydroquinolin-6-yl)oxy)acetate], in assay [1] (10 µM, two days), the activity at 10 µM came out at 85% and the inhibition at 10 µM was 15%. Further, in assay [2] (10 µM, two days), the activity at 10 µM is 71% and the inhibition at 10 µM was found to be 29%.

For the molecule `O=C1CCc2cc(OCCCCOC(=O)c3ccccc3)ccc2N1` [TR-G013, 4-((2-oxo-1,2,3,4-tetrahydroquinolin-6-yl)oxy)butyl benzoate], in assay [1] (10 µM, two days), the activity at 10 µM is 78% and the inhibition at 10 µM is 22%. Besides, in assay [2] (10 µM, two days), the activity at 10 µM stood at 71% and the inhibition at 10 µM was 29%.

Consider `O=C(OCCCCOc1ccc2c(c1)CCC(=O)N2CCCCOC(=O)c1ccccc1)c1ccccc1` [TR-G013A, 4-(6-(4-(benzoyloxy)butoxy)-2-oxo-3,4-dihydroquinolin-1(2H)-yl)butyl benzoate], for which, in assay [1] (10 µM, two days), the activity at 10 µM was determined as 53% and the inhibition at 10 µM was 47%. Also, in assay [2] (10 µM, two days), the activity at 10 µM was determined as 46% and the inhibition at 10 µM worked out at 54%.

`C=CCOc1ccc2c(c1)CCC(=O)N2CC=C` [TR-G014A, 1-allyl-6-(allyloxy)-3,4-dihydroquinolin-2(1H)-one]: the activity at 10 µM came out at 68% in assay [1] (10 µM, two days) and 82% in assay [2] (10 µM, two days). Moreover, the inhibition at 10 µM in assay [1] (10 µM, two days) is 32%; in assay [2] (10 µM, two days) it was 19%.

`O=C1CCc2cc(OC(=O)CCl)ccc2N1` [TR-G016, 2-oxo-1,2,3,4-tetrahydroquinolin-6-yl 2-chloroacetate]: in assay [1] (10 µM, two days), the activity at 10 µM is 95% and the inhibition at 10 µM came to 5%. Besides, in assay [2] (10 µM, two days), the activity at 10 µM worked out at 78% and the inhibition at 10 µM came to 22%.

For the molecule `O=C1CCc2cc(OCCBr)ccc2N1` [TR-G017, 6-(2-bromoethoxy)-3,4-dihydroquinolin-2(1H)-one], in assay [1] (10 µM, two days), the activity at 10 µM came out at 82% and the inhibition at 10 µM was found to be 18%. Further, in assay [2] (10 µM, two days), the activity at 10 µM came out at 94% and the inhibition at 10 µM worked out at 6%.

With `NNC(=O)COc1ccc2c(c1)CCC(=O)N2` [TR-G019, 2-((2-oxo-1,2,3,4-tetrahydroquinolin-6-yl)oxy)acetohydrazide], in assay [1] (10 µM, two days), the activity at 10 µM is 75% and the inhibition at 10 µM amounted to 25%. Besides, in assay [2] (10 µM, two days), the activity at 10 µM was 75% and the inhibition at 10 µM was 25%.

As for `O=C(COc1ccc2c(c1)CCC(=O)N2)NN=Cc1ccc(Cl)cc1` [TR-G021, N'-(4-chlorobenzylidene)-2-((2-oxo-1,2,3,4-tetrahydroquinolin-6-yl)oxy)acetohydrazide], in assay [1] (10 µM, two days), the activity at 10 µM is 60% and the inhibition at 10 µM worked out at 40%. In assay [2] (10 µM, two days), the activity at 10 µM amounted to 65% and the inhibition at 10 µM was determined as 36%.

With `COc1ccc(C=NNC(=O)COc2ccc3c(c2)CCC(=O)N3)c(OC)c1` [TR-G022, N'-(2,4-dimethoxybenzylidene)-2-((2-oxo-1,2,3,4-tetrahydroquinolin-6-yl)oxy)acetohydrazide], the activity at 10 µM in assay [1] (10 µM, two days) amounted to 75%; in assay [2] (10 µM, two days), 98%. For the same molecule, the inhibition at 10 µM amounted to 25% in assay [1] (10 µM, two days) and 2% in assay [2] (10 µM, two days).

On to `O=C1CCc2cc(OC(=O)CN3CCN(c4ncccn4)CC3)ccc2N1` [TR-G023, 2-oxo-1,2,3,4-tetrahydroquinolin-6-yl 2-(4-(pyrimidin-2-yl)piperazin-1-yl)acetate], for which, in assay [1] (10 µM, two days), the activity at 10 µM amounted to 99% and the inhibition at 10 µM turned out to be 1%. Besides, in assay [2] (10 µM, two days), the activity at 10 µM was 83% and the inhibition at 10 µM came to 17%.

With `O=C(COc1ccc2c(c1)CCC(=O)N2)N/N=C/c1ccco1` [TR-G025, (E)-N'-(furan-2-ylmethylene)-2-((2-oxo-1,2,3,4-tetrahydroquinolin-6-yl)oxy)acetohydrazide], in assay [1] (10 µM, two days), the activity at 10 µM is 90% and the inhibition at 10 µM was determined as 10%. Further, in assay [2] (10 µM, two days), the activity at 10 µM is 75% and the inhibition at 10 µM turned out to be 25%.

In the case of `COc1ccc(/C=N/NC(=O)COc2ccc3c(c2)CCC(=O)N3)cc1` [TR-G026, (E)-N'-(4-methoxybenzylidene)-2-((2-oxo-1,2,3,4-tetrahydroquinolin-6-yl)oxy)acetohydrazide], in assay [1] (10 µM, two days), the activity at 10 µM was found to be 90% and the inhibition at 10 µM came out at 10%. In addition, in assay [2] (10 µM, two days), the activity at 10 µM is 92% and the inhibition at 10 µM is 8%.

Consider `Cc1[nH]c2ccccc2c1/C=N/NC(=O)COc1ccc2c(c1)CCC(=O)N2` [TR-G027, (E)-N'-((2-methyl-1H-indol-3-yl)methylene)-2-((2-oxo-1,2,3,4-tetrahydroquinolin-6-yl)oxy)acetohydrazide], for which, in assay [1] (10 µM, two days), the activity at 10 µM amounted to 54% and the inhibition at 10 µM turned out to be 46%. In addition, in assay [2] (10 µM, two days), the activity at 10 µM turned out to be 66% and the inhibition at 10 µM came out at 34%.

Turning to `CCCc1ccc(/C=N/NC(=O)COc2ccc3c(c2)CCC(=O)N3)cc1` [TR-G028, (E)-2-((2-oxo-1,2,3,4-tetrahydroquinolin-6-yl)oxy)-N'-(4-propylbenzylidene)acetohydrazide], the activity at 10 µM in assay [1] (10 µM, two days) worked out at 106%; in assay [2] (10 µM, two days), 64%. Besides, the inhibition at 10 µM was -6% in assay [1] (10 µM, two days) and 36% in assay [2] (10 µM, two days).

Turning to `O=C(COc1ccc2c(c1)CCC(=O)N2)N/N=C/C1CCCCC1` [TR-G029, (E)-N'-(cyclohexylmethylene)-2-((2-oxo-1,2,3,4-tetrahydroquinolin-6-yl)oxy)acetohydrazide], in assay [1] (10 µM, two days), the activity at 10 µM came to 68% and the inhibition at 10 µM was determined as 32%. In addition, in assay [2] (10 µM, two days), the activity at 10 µM came out at 82% and the inhibition at 10 µM was 18%.
